The record followed here is US20220211695A1, “MORPHINE-INDUCED RESPIRATORY DEPRESSION: BEHAVIORAL, PHRENIC AND BRAINSTEM RESPIRATORY NEURONAL EVIDENCE” (GEORGIA STATE UNIVERSITY RESEARCH FOUNDATION, INC., priority 2019, published 2022).

Data set [1] deals with phrenic discharges. Conditions: rat, in vivo.
For data set [2], the system named is rostral ventral respiratory group (rVRG) neurons. The experiment in a line: Extracellular recording of firing activity of respiratory neurons in the ventral respiratory group. The format is in vivo, Sprague Dawley rats.
Description: Firing activity of respiratory neurons was recorded extracellularly in the ventral respiratory group.
Data set [3] relates to phrenic discharges. The data set is described as follows: Phrenic discharge recording in spontaneously breathing rats after decerebration.
For a further data set, the system named is Sprague Dawley rats. The experiment in a line: Plethysmography of breathing after repetitive (chronic) morphine administrations, with or without cloperastine. The text has this: A major adverse effect of the chronic use of opioid drugs is respiratory depression causing a […] in the United States. Via μ-Opioid receptors (MOR), respiratory neurons in the brainstem are known to be the targets, especially those in the ventral respiratory column (VRC). However, how the VRC neurons react to chronic opioid drugs remains elusive. To understand how chronic morphine exposures affect brainstem respiratory motor output, we performed these studies in Sprague Dawley rats, using repetitive morphine administrations. […] Since the MOR is coupled to GIRK channels, we applied Cloperastine, a GIRK channel blocker and a commercial OTC drug, to the rats before or after chronic morphine.
Disclosed herein are methods for treating chronic morphine exposures and how this exposure affects brainstem respiratory motor output. Disclosed herein are studies using Sprague Dawley rats, during which repetitive morphine administrations were conducted.

[4] abbreviates: 50 mg/kg morphine followed by 30 mg/kg cloperastine.

Take `Clc1ccc(C(OCCN2CCCCC2)c2ccccc2)cc1` (stereo not drawn) [cloperastine]: in the data set on phrenic discharges [1], the “Te and Ti duration (FIG. 24)” value is recorded as “nearly the same as the control”; the “Te/Ti ratio (FIG. 25)” value was “nearly identical to control”; the “breathing frequency (FIG. 26)” value was “nearly identical to control”. In data set [2] (setting [4]), the “firing activity of rVRG neurons (FIG. 31)” value is listed as “return to near normal firing activity”. The “phrenic discharge pattern (FIG. 19)” value in the data set with phrenic discharges [3] (setting [4]) was “erratic phrenic activity has nearly completely subsided”. Besides, in the data set on Sprague Dawley rats (30 mg/kg cloperastine injected after 10 mg/kg morphine), the “erratic breathing (FIG. 8)” value is “reduction in erratic breathing”. Besides, in the data set with Sprague Dawley rats (30 mg/kg cloperastine injected first, then 10 mg/kg morphine), the “erratic breathing (FIG. 11)” value is “reduction in erratic breathing”. Also, the “effect on chronic morphine-induced central hypoventilation” value with Sprague Dawley rats (cloperastine applied before or after chronic morphine) was “reverses hypoventilation mainly by suppression the irregularity of breathing amplitude and frequency”. Further, in the data set with Sprague Dawley rats (cloperastine given at 20 minutes post morphine), the “time at which a significant change in normalized minute ventilation occurs (FIG. 16)” value is “about 45 minutes”. For the same molecule, the “effect on morphine's effects on breathing frequency (FIG. 13)” value in the data set on Sprague Dawley rats (cloperastine injection after morphine, normalized time course) is “reducing the effects of morphine of breathing frequency”.
As for `CN1CC[C@]23c4c5ccc(O)c4O[C@H]2[C@@H](O)C=C[C@H]3[C@H]1C5` [morphine], the “E-I phase-spanning neurons in the ventral respiratory group” value in data set [2] (chronic morphine versus saline injection) is listed as “A large number of E-I phase-spanning neurons were observed”. The “ectopic phrenic activity during expiration” value with phrenic discharges [3] (after chronic morphine exposures) was “Ectopic phrenic activity during expiration was seen”. Besides, the “effect on breathing (minute ventilation, variation of amplitude and frequency)” value in the data set on Sprague Dawley rats (10 mg/kg morphine) was “causes central hypoventilation with decreased breathing minute ventilation, increased variation of both breathing amplitude & frequency”. For the same molecule, the “breathing depression after repetitive morphine administrations” value in the data set on Sprague Dawley rats (chronic morphine, Sprague Dawley rats) was “severe breathing depression was found in these rats”. For the same molecule, the “time for the breathing effects to reach a plateau level” value with Sprague Dawley rats (repetitive morphine administrations) fell in the range of 3 to 4 days. In addition, the “duration of minute ventilation suppression” value with Sprague Dawley rats (same dose morphine following the chronic treatments) fell in the range of 3 to 4 h. Moreover, in the data set on Sprague Dawley rats (same dose morphine following the chronic treatments, n=16 rats, plethysmography), the “suppression of minute ventilation” value is recorded as 55.2%±4.1. Also, in the data set with Sprague Dawley rats (same dose morphine following the chronic treatments, plethysmography), the “variations in tidal volume and breathing frequency” value is “severe variations in tidal volume and breathing frequency”.
